Assay results taken from US6160008A, “Pharmaceutical compositions comprising S-alkylisothiouronium derivatives” (priority 1996, dated 2000).
Entries after “also recorded” stand apart in the source; their conditions may differ. Read-outs that look alike come from different tables or passages of the source.

Tests used:
[1] = Biochemical tests of dog blood serum and general toxicity, 3-day experiment (Tables 10-14); format: in vivo; conditions: 10 mg/kg i.v. daily, 3 days, dogs
Protocol: In an experiment on dogs, the functional condition of the organism was estimated by biochemical tests, after the intravenous injection of a 10% solution S-ethylisothiouronium diethylphosphate, at a dose of 10 mg/kg daily. This experiment was conducted at the same time of the day. Blood was examined 1 hour after the administration of the preparation during 3 successive days and on the 4th, the 5th and on the 10th day after injection. The concentrations of total protein, of albumin, globulins, total cholesterol, and glucose in dog blood serum were determined by conventional methods. The total protein content was determined by biureth method, total cholesterol--by like method, glucose--by glucose-oxidase method.
The general toxicity and biochemical parameters were determined in a 3-day experiment, where a 10% solution of the preparation was daily intravenously injectioned at a dose of 10 mg/kg.

arterial blood pressure = assay: Influence of single intravenous injection on arterial blood pressure, heart rate and respiratory rate in anesthetized cats (Table 1, FIGS. 1-10); format: in vivo; conditions: 5 mg/kg i.v.
Protocol: Experiments were performed on 52 anesthetized (intraperitoneally with 45 mg/kg of sodium pentobarbital) cats of both genders with body mass of 2.8-4.2 kg. Arterial pressure was measured by a mercury pressure gauge; measurements were also performed by ECG. Simultaneously, the respiratory frequency was registered. The hypertensive effect was determined as percent increase relative to the initial level of systolic arterial pressure (SAP). The duration of observation was 1-3 hours; the heart rate (HR) was calculated on the basis of ECG.

[2] = in vivo, cited from earlier work
[3] = Biochemical indices of mice blood serum, chronic experiment (Table 9); format: in vivo, F1 (C57B1×CBA); conditions: for Body mass / Glucose / Total cholestrol / Total protein: 100 mg/kg i.v.; for Total protein: in g/L (unit assumed)
Protocol: The effect of S-ethylisothiouronium diethylphosphate on body constituents was estimated in chronic and acute experiments. These experiments were conducted on F1 (C57B1×CBA) line mice and biochemical tests were made after a single administration of S-ethylisothiouronium diethylphosphate, injected intravenously at doses of 100 mg/kg (in the chronic experiment) and 500 mg/kg (in the acute experiment).
In the acute experiment, blood was taken 30, 60 and 75 minutes after the administration of the medicine. In the chronic experiment (which lasted 30 days), blood was daily examined 1 hour after the injection. Terms of the study were 1, 7, 14, and 21 days. The concentrations of total protein, total cholesterol, and glucose in mice blood serum were determined by conventional methods. Total protein was determined by a biuret method, total cholesterol--by like method, glucose--by the glucose-oxidase method.
Mouse blood was obtained after rapid decapitation. Tested material was sampled at the same time of the day and on the same season.
Blood for serum was sampled into centrifuge test tubes, put into the thermostat for 30-40 minutes; the clot was outlined by a needle, then it was put into a refrigerator for 1 hour+4° C. After cooling it was centrifuged at 3000 RPM during 10-15 minutes. Serum with no signs of hemolysis was sampled into a clean tube. All quantitative indices of the blood biochemical characteristics were obtained by spectrophotometric measurements. Calibration curves to determine total protein and cholesterol were constructed in advance.

[4] = Lung coefficient under hyperbaric oxygen (3 atm); format: in vivo, mice and rats; conditions: for Lung coefficient (lung mass/body mass X100): hyperbaric oxygen
Protocol: (§1) Animals were exposed to oxygen under increased pressure in a hyperbaric chamber <<Mana-2≤≤ for treatment of infants above 1 year, which was adjusted for the experiments on animals. The hyperbaric chamber design permitted to create excessive pressure up to 3 atm and to observe animal behavior from outside.
(§2) The experiments were performed on males of F1 (CBAx57B1) mice line and on males of Wistar rat line. Animals were placed in the hyperbaric chamber in plastic boxes and the atmospheric air was replaced by oxygen. The period of compression-decompression was 10 minutes. The exposure of the animals to an oxygen pressure of 3 atm during a period of 2 hours caused only some increase in their motion activity. Further staying of rats and mice in those conditions led to a decrease in the motion activity, to asphyxia with short periods of excitement and cramps. The death of some animals was registered after 2.5-3 hours, 50% after 4 hours, and 75% of mice and 100% of rats were dead after 5 hours.
(§3) When the influence of Difetur and Etyron was studied, the animals were exposed to an oxygen pressure of 3 atm during 5 hours if not otherwise specified. Preparations were injected 5-10 minutes before the session.
After the session the dead animals were autopsied, their lungs were removed, and the index <<lung mass in gr./body mass in gr. X100>> (i.e. lung coefficient) was defined.

[5] = tested on: rats exposed to an oxygen pressure of 3 atm; assay: Survival under oxygen pressure of 3 atm, rats (Table 15); format: in vivo, Wistar rat; conditions: 5 hours
Protocol: as §1, §2, §3

[6] = listed as S-ethylisothiuronium diethylphosphate

CCSC(=N)N [S-ethylisothiouronium diethylphosphate]
General toxicity and serum biochemistry in words [1]: wavy fluctuations with the tendency to decrease on the 4th and 5th day; also recorded: The level of albumins and globulins also changed in a wavy manner; also recorded: The level of total cholesterol and glucose had slight fluctuations which did not overstep the fluctuation limits of healthy dogs; also recorded: no evidence was found for intoxication or any significant deviation between the parameters studied and the initial data; also recorded: individual sensitivity of the animals to intravenous injection of the preparation was not found
Hypertensive activity, % (increase relative to the initial level of SAP) (arterial blood pressure): 40%
Hypertensive effect in words (arterial blood pressure): one of the most active compounds; also recorded: most active compound
RR (influence on respiratory rate) (arterial blood pressure): increases RR
Time to achieve maximum effect (arterial blood pressure): 2 min
Hypertensive activity (increase of SAP) (arterial blood pressure; given as "> SAP by", listed as S-ethylisothiuronium diethylphosphate): 40 mm Hg
Duration of effect (arterial blood pressure; [6]): 1 to 1.5 h
Hypertensive activity, % (increase relative to the initial level of SAP) (arterial blood pressure; [6]): 40%
Influence on HR (arterial blood pressure; [6]): Bradycardia
RR (influence on respiratory rate) (arterial blood pressure; [6]): Increases
Radioprotective effect in words [2]: radioprotective effect
Radioprotective effect in words ([2]; listed as Difetur): distinct radioprotective effect
Body mass ([3]; 1st day): 23.8 ± 0.1 g
Glucose ([3]; 1st day): 7.1 ± 1.4 mmol/L
Total cholestrol ([3]; 1st day): 4.7 ± 0.9 mmol/L
Total protein ([3]; 1st day): 75.6 ± 4.9
Body mass ([3]; 7th day): 24.0 ± 0.2 g
Glucose ([3]; 7th day): 8.2 ± 1.8 mmol/L
Total cholestrol ([3]; 7th day): 5.0 ± 0.6 mmol/L
Total protein ([3]; 7th day): 63.5 ± 4.4
Body mass ([3]; 14th day): 28.1 ± 0.3 g
Glucose ([3]; 14th day): 8.8 ± 1.7 mmol/L
Total cholestrol ([3]; 14th day): 3.0 ± 0.36 mmol/L
Total protein ([3]; 14th day): 72.4 ± 3.3
Body mass ([3]; 21st day): 26.1 ± 0.5 g
Glucose ([3]; 21st day): 9.9 ± 1.8 mmol/L
Total cholestrol ([3]; 21st day): 4.9 ± 0.42 mmol/L
Total protein ([3]; 21st day): 74.9 ± 2.4
Serum biochemistry in words ([3]; 100 mg/kg, chronic experiment): fluctuations of the studied parameters do not exceed the limits of physiological fluctuations
Lung coefficient (lung mass/body mass X100) ([4]; 5 mg/kg): 0.95±0.09
Lung coefficient (lung mass/body mass X100) ([4]; 10 mg/kg): 0.97±0.09
Lung coefficient (lung mass/body mass X100) ([4]; 20 mg/kg): 0.88±0.08
Lung protection in words ([4]; in vivo): considerable protective efficiency regarding the lung tissue
Number of survived animals ([5]; 5 mg/kg): 60%
Number of survived animals ([5]; 10 mg/kg): 50%
Number of survived animals ([5]; 20 mg/kg): 70%
